Measurements published in article PMC8508960, “Ruthenium Half-Sandwich Type Complexes with Bidentate Monosaccharide Ligands Show Antineoplastic Activity in Ovarian Cancer Cell Models through Reactive Oxygen Species Production” (International Journal of Molecular Sciences, 2021).

Key:
ID8 cells [1] = assay: MTT reduction assay (4 h, rapid toxicity) on ID8 cells; assay type: cell-based
Method: (§1) Cells were cultured under standard cell culture conditions, 37 °C, 5% CO2, humidified atmosphere. A2780 cells were cultured in RMPI 1640 medium supplemented with 10% fetal calf serum, 2 mM glutamine, and 1% penicillin–streptomycin (Sigma-Aldrich). ID8 cells were cultured in high-glucose DMEM (4.5 g/L glucose) supplemented with 4% fetal calf serum, 2 mM glutamine, 1% penicillin–streptomycin (Sigma-Aldrich), and 1% ITS supplement (Sigma-Aldrich I3146). U251 cells were maintained in MEM (Sigma-Aldrich), 10% fetal bovine serum (Sigma-Aldrich), 1% penicillin/streptomycin (Invitrogene), and 2 mM glutamine. MCF7 cells were maintained in MEM (Sigma-Aldrich), 10% fetal bovine serum (Sigma-Aldrich), 1% penicillin/streptomycin (Invitrogen, Waltham, MA, USA), and 2 mM glutamine. Capan2 cells were maintained in MEM (Sigma-Aldrich), 10% fetal bovine serum (Sigma-Aldrich), 1% penicillin/streptomycin (Invitrogen), and 2 mM glutamine. Human primary dermal fibroblasts were cultured in low-glucose DMEM (1 g/L glucose) supplemented with 20% fetal calf serum, 2 mM glutamine, and 1% penicillin–streptomycin (Sigma-Aldrich).
(§2) The MTT reduction assay assesses the activity of mitochondrial complex I, and it was used to assess rapid toxicity. The MTT reduction assay was performed similarly to [67]. Cells were seeded in 96-well plates. The next day, cells were treated with the compounds for 4 h in the concentrations indicated in a cell incubator. At the end of treatment, MTT was added in 0.5 mg/mL final concentration, and cells were incubated at 37 °C in a cell incubator. Then, culture media was removed, the reduced MTT dye was resolved in dimethyl sulfoxide (DMSO), and plates were measured in a plate photometer (Thermo Scientific Multiscan GO spectrophotometer, Waltham, MA, USA) at 540 nm. On each plate, wells were designed to contain untreated/vehicle-treated cells. In calculations, the readings for these wells were considered as 1, and all readings were expressed relative to these values.

[2] = system: human primary skin fibroblasts; assay: SRB proliferation assay (48 h) on primary fibroblasts; assay type: cell-based
Method: as §1
(§3) The SRB accumulation assay assesses protein content in a sample, and it was used to assess cell proliferation. The SRB accumulation assay was performed similarly to [68]. Cells were seeded in 96-well plates. The next day, cells were treated with the compounds for 48 h in the concentrations indicated in a cell incubator. At the end of treatment, cells were fixed with 10% trichloroacetic acid (TCA). Fixed cells were stained with SRB (0.4% m/v dissolved in 1% acetic acid) for 60 min. Fixed cells were washed in 1% acetic acid three times; acetic acid was removed, and cells were left to dry. Protein-bound SRB was released by adding 100 µL of 10 mM Tris base. Plates were measured in a plate photometer (Thermo Scientific Multiscan GO spectrophotometer, Waltham, MA, USA) at 540 nm. On each plate, wells were designed to contain untreated cells. In calculations, the readings for these wells were considered as 1, and all readings were expressed relative to these values.
(§4) Statistical analysis was performed using Graphpad Prism version 8.0.1. Values were tested for normal distribution using the D’Agostino and Pearson normality test. When necessary, values were log-normalized or were normalized using the Box–Cox normalization method, as indicated in the figure captions. Nonlinear regression was performed using the built-in “[Inhibitor] vs. response—variable slope (four parameters), least square fit” utility of Graphpad that yielded IC50 and Hill slope values.

[3] = system: U251 cells (glioblastoma model); assay: SRB proliferation assay (48 h) on U251 cells; assay type: cell-based; settings: nonlinear regression
Method: as §1, §3, §4

[4] = system: human primary skin fibroblasts; assay: MTT reduction assay (4 h, rapid toxicity) on primary fibroblasts; assay type: cell-based
Method: as §1, §2

A2780 cells [5] = assay: Western blotting of 4-hydroxy-nonenal (4HNE), oxidative stress marker; assay type: cell-based, human; settings: concentration corresponding to IC50, 48 h
Method: The preparation of protein extracts, the separation of protein extracts in SDS-polyacrylamide gel electrophoresis, and the subsequent Western blotting were performed as described in [70] using the antibodies in Table 4. Enhanced chemiluminescence was developed using ChemiDoc Imager, (Bio-Rad, Hercules, CA, USA). Densitometry was performed using Image Lab Touch Software, Bio-Rad, Hercules, CA, USA).

A2780 cells [6] = assay: SRB assay on A2780 cells with antioxidant cotreatment (GSH, NAC, MitoTEMPO, vitamin E, Trolox); assay type: cell-based, human; settings: 48 h
Method: as §3

[7] = system: MCF7 cells (breast cancer); assay: SRB proliferation assay (48 h) on MCF7 cells; assay type: cell-based; settings: nonlinear regression
Method: as §1, §3, §4

A2780 cells [8] = assay: SRB assay on A2780 cells with or without 3 µM rucaparib; assay type: cell-based, human; settings: 48 h, vehicle (no rucaparib)
Method: as §3, §4

[9] = system: A2780 human ovarian carcinoma cells; assay: SRB proliferation assay (48 h) on A2780 cells; assay type: cell-based; settings: for cytostatic activity in long-term SRB assay (in words): A2780 cells, 100–0.0017 µM; for Hill slope (span over cell lines): SRB curves, A2780 and ID8 cells; for A2780 Hill Slope / IC50: SRB, nonlinear regression, N/A = could not be calculated/had no effect
Method: as §1, §3, §4

A2780 cells [10] = assay: Annexin V-FITC, PI double staining (flow cytometry); assay type: cell-based, human; settings: concentration corresponding to IC50, 2 h, 4 h or 48 h
Method: Annexin V–PI double staining was applied to assess apoptotic and necrotic cell death similar to [37, 38, 69]. A2780 cells were treated with the indicated compounds at the concentration corresponding to their IC50 value for 2, 4, and 48 h. The 4 and 48 h time points correspond to the time points for the MTT and SRB assays, while the 2 h time point reflects the optimum time point for the detection of apoptotic or necrotic cell death. Quadrants were set on the basis of the FITC and PI values observed for the vehicle-treated cells.

ID8 cells [11] = assay: SRB proliferation assay (48 h) on ID8 cells; assay type: cell-based; settings: for cytostatic activity in long-term SRB assay (in words): ID8 cells; for IC50 / ID8 Hill Slope: SRB, nonlinear regression, N/A = could not be calculated/had no effect
Method: as §1, §3, §4

[12] = Determination of the distribution coefficients (logD), n-octanol/PBS; assay type: physicochemical; settings: n-octanol / PBS pH = 7.40
Method: Prior to the experiments, n-octanol was saturated with aqueous PBS solution (pH = 7.40) and vice versa. The corresponding complex (approximately 0.2–0.3 mg) was dissolved in a mixture of 2.50 mL of pre-saturated n-octanol and 2.50 mL of pre-saturated PBS buffer, and the mixture was vigorously stirred for 3 days. According to the NMR stability measurements, this time was necessary to reach equilibrium between the various ionic complex species. Due to the lipophilic/hydrophilic character of the complexes, those with benzoyl protection or the non-sugar derivative could mostly be found in the n-octanol, while the acetyl and non-protected complexes could be found in the aqueous PBS phase. The appropriate separated solution was centrifuged (ScanSpeed 406G instrument, 4000 RPM for 5 min), and the absorption of the “stock solution” was measured (VWR UV-1600PC Spectrophotometer, 270–420 nm). Then 2.00 mL of stock solution was stirred vigorously with 16.00 mL of pre-saturated, clean n-octanol or PBS solution. After 1 day, the phases were separated and centrifuged, and the absorption of the solution was measured again. From the absorption difference of the stock solutions, the distribution coefficient (D) was calculated according to the previously described formulae [66].

[13] = system: Capan2 (pancreatic adenocarcinoma); assay: SRB proliferation assay (48 h) on Capan2 cells; assay type: cell-based; settings: nonlinear regression
Method: as §1, §3, §4

[14] = system: A2780 human ovarian carcinoma cells; assay: MTT reduction assay (4 h, rapid toxicity) on A2780 cells; assay type: cell-based
Method: as §1, §2

Row | SMILES | IC50 [3] | U251 Hill Slope [3] | effect in short-term MTT assay, rapid toxicity (in words) [4] | expression of oxidative stress marker 4-hydroxy-nonenal (4HNE) (A2780 cells [5]) | effect of GSH and NAC cotreatment on the cytostatic effects of the complex (A2780 cells [6]) | effect of MitoTEMPO on the cytostatic effects of the complex (A2780 cells [6]) | IC50 [7] | MCF7 Hill Slope [7] | IC50 (A2780 cells [8]) | cytostatic activity in long-term SRB assay (in words) [9] | Hill slope (span over cell lines) [9] | A2780 Hill Slope [9] | IC50 [9] | proportions of PI-positive, annexin V-positive and double-positive cells (A2780 cells [10]) | cytostatic activity in long-term SRB assay (in words) (ID8 cells [11]) | IC50 (ID8 cells [11]) | ID8 Hill Slope (ID8 cells [11]) | logD [12] | Capan2 Hill Slope [13] | IC50 [13] | other results
1 | Cc1ccc(C(C)C)cc1.F[P-](F)(F)(F)(F)F.O=C(OC1COC(c2n[n+]3c(o2)-c2cccc[n+]2[Ru-]3[Cl])C(OC(=O)c2ccccc2)C1OC(=O)c1ccccc1)c1ccccc1 (mixture of isomers) [Ru-6] | 6.61 µM | 2.13 | no effect | increase in the expression | attenuated the cytostatic effects | did not modulate the effects | 6.69 µM | 2.13 | 6.83 µM | cytostatic properties | 2–3 | 3.74 | 8.54 µM | did not largely increase | cytostatic | 6.76 µM | 3.59 | 2.04 | 1.66 | 4.97 µM | effect on MTT signal at 100 µM (ID8 cells [1]; 100 µM, Ru-4: not statistically significant): reduced the MTT signal; Fibroblast Hill Slope ([2]; SRB, nonlinear regression, N/A = could not be calculated/had no effect): 3.52; IC50 ([2]; SRB, nonlinear regression, N/A = could not be calculated/had no effect, read-out: Fibroblast IC50): 24.6 µM; effect on SRB signal at 100 µM ([2]; primary human fibroblasts, 100 µM): reduced the SRB signal; effect in short-term MTT assay, rapid toxicity (in words) [14]: cytostatic properties
2 | Cc1ccc(C(C)C)cc1.F[P-](F)(F)(F)(F)F.O=C(OCC1OC(c2nnc(-c3ccccn3)o2)C(OC(=O)c2ccccc2)C(OC(=O)c2ccccc2)C1OC(=O)c1ccccc1)c1ccccc1.[Cl][Ru+] (mixture of isomers) [Ru-8] | 4.49 µM | 2.50 | no effect | increase in the expression | attenuated the cytostatic effects | did not modulate the effects | 3.75 µM | 2.06 | 4.17 µM | cytostatic properties | 2–3 | 3.50 | 4.27 µM | did not largely increase | cytostatic | 7.94 µM | 3.31 | 2.44 | 1.66 | 3.82 µM | effect on MTT signal above 10 µM (ID8 cells [1]; above 10 µM concentration): reduced the MTT signal; effect in long-term SRB assay (in words) ([2]; primary human fibroblasts): no effect; effect in short-term MTT assay, rapid toxicity (in words) [14]: cytostatic properties; effect on MTT signal above 10 µM ([14]; above 10 µM concentration): reduced the MTT signal
